{"source": "paper PMC7988029", "about": "“Growth optimization and identification of an ω-transaminase by a novel native PAGE activity staining method in a Bacillus sp. strain BaH isolated from Iranian soil” (AMB Express, 2021)", "system": "T1, BaH-ω-TA", "T1 construct": "gene omega-TA; native enzyme in unpurified crude extract of the wild-type strain; one activity band on native PAGE", "assay": "acetophenone formation by HPLC, Michaelis-Menten non-linear fit", "type": "biochemical, Bacillus sp. BaH", "conditions": "0.1 mM PLP, Britton-Robinson buffer pH 6, 15 % DMSO, 35 °C, 1 mg/mL crude extract, read-out: apparent Km", "note": "Like-named read-outs stand apart in the source and are kept apart here."}
{"molecule": "C[C@H](N)c1ccccc1", "note": "[(S)-MBA]", "values": [{"measurement": "Km", "setting": "60 mM pyruvate", "result": 2.6, "unit": "mM"}]}
{"molecule": "CC(=O)C(=O)O", "note": "[pyruvate]", "values": [{"measurement": "Km", "setting": "70 mM (S)-MBA", "result": 17.3, "unit": "mM"}]}
